Read-outs that look alike come from different tables or passages of the source. Each block holds one molecule with its values, some of them ahead of it.
How the values were obtained:
microglial BV2 cells = assay: LDH release cell viability assay; type: cell-based, murine; conditions: 0.5nM to 50 μM, 24h
Method: (§1) BV2 cells were harvested and counted before stimulation. The cells were untreated (control), vehicle-treated (DMSO), or treated with increasing concentrations (0.5nM, 5nM, 50nM, 0.5 μM, 5μM and 50 μM) of LDDN-0003499, LDDN-0075935, LDDN-0125694 or LDDN-0127164 for 24h to assess toxicity and 1 hour to assess effects on basal kinase activity. For secretion analyses, cells were pretreated with drugs for 1 hour prior to stimulation with 50nM Aβ (overnight) or 25ng/mL LPS (overnight) in the presence of the drugs in serum free DMEM/F12. Media were collected for ELISA analysis and for LDH release viability assays. For signaling analyses, cells were pretreated with drugs for 1 hour prior to 5 minute stimulation with 1μM Aβ 1–42. […] Protein concentrations were determined using the Bradford method.
For the lactate dehydrogenase release (LDH) assay, media following the 24 hour cell stimulations were transferred onto a new 96-well plate and LDH concentrations assayed according to manufacturer instructions (Promega Corporation, Madison, WI). Background absorbance was subtracted from each condition. All absorbance values for the LDH assay were averaged and plotted ±SD.

[1] = system: total protein phosphotyrosine levels in BV2 cells; assay: Total protein phosphotyrosine western blot (4G10), basal; type: cell-based, murine; conditions: 0.5nM to 50 μM, 1h, vs vehicle
Method: as §1
(§2) Cell lysates were resolved by SDS-PAGE on 10% polyacrylamide gels and transferred to PVDF membranes. […] Blots were washed followed by incubation with HRP-conjugated secondary antibodies and antibody binding was detected via enhanced chemiluminescence (GE Healthcare, Piscataway, NJ). Western blots were quantified using Adobe Photoshop software. […]

Lyn [2] = biological target: T1, Lyn (Mus musculus, UniProt P25911); assay: Basal pLyn (Tyr 396) western blot in BV2 cells; type: cell-based, murine; conditions: 0.5nM to 50 μM, 1h
T1 construct: endogenous in cells; host or cells: BV2 murine microglial cell line
T1 sequence (P25911 whole entry): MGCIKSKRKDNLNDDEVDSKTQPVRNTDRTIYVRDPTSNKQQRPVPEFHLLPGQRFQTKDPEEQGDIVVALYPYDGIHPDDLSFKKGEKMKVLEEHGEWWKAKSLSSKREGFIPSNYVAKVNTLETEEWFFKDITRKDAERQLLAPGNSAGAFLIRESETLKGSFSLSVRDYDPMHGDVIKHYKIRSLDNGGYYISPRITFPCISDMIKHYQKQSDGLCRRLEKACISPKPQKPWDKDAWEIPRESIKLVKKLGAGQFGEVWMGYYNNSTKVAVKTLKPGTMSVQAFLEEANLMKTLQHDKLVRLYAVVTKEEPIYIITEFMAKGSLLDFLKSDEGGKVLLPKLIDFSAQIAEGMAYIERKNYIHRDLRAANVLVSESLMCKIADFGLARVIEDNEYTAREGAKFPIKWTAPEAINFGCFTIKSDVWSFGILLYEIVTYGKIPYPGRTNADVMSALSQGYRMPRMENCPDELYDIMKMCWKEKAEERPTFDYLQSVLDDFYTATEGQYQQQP
Method: as §1, §2

Src [3] = biological target: T2, Src (Mus musculus, UniProt P05480); assay: Basal pSrc (Tyr 416) western blot in BV2 cells; type: cell-based, murine; conditions: 0.5nM to 50 μM, 1h
T2 construct: endogenous in cells; host or cells: BV2 murine microglial cell line
T2 sequence (P05480 whole entry): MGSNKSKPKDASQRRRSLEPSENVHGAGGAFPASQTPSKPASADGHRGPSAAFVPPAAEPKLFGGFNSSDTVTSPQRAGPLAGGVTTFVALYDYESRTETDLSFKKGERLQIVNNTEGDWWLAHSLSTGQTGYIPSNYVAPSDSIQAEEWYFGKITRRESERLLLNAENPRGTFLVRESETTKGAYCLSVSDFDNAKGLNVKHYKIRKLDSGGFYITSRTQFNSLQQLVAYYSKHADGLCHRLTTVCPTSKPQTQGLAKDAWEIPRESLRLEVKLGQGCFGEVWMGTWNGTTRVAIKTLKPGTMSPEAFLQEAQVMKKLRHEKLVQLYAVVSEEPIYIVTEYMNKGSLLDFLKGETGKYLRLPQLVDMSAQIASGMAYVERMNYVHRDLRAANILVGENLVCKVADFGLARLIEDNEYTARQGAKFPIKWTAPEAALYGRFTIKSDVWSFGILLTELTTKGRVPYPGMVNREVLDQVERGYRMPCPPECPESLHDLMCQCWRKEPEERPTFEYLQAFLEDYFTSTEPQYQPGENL
Method: as §1, §2

ERK [4] = assay: Basal pERK western blot in BV2 cells; type: cell-based, murine; conditions: 0.5nM to 50 μM, 1h
Method: as §1, §2

JNK = assay: Basal pJNK western blot in BV2 cells; type: cell-based, murine; conditions: 0.5nM to 50 μM, 1h
Method: as §1, §2

p38 = assay: Basal p-p38 western blot in BV2 cells; type: cell-based, murine; conditions: 0.5nM to 50 μM, 1h
Method: as §1, §2

Lyn [5] = biological target: T1, Lyn; assay: Aβ-stimulated pLyn western blot in BV2 cells; type: cell-based, murine
Method: (§3) BV2 cells were harvested and counted before stimulation. The cells were untreated (control), vehicle-treated (DMSO), or treated with increasing concentrations (0.5nM, 5nM, 50nM, 0.5 μM, 5μM and 50 μM) of […]-0125694 or LDDN-0127164 for 24h to assess toxicity and 1 hour to assess effects on basal kinase activity. […] Media were collected for ELISA analysis and for LDH release viability assays. For signaling analyses, cells were pretreated with drugs for 1 hour prior to 5 minute stimulation with 1μM Aβ 1-42. […] Protein concentrations were determined using the Bradford method. Cell lysates were resolved by SDS-PAGE on 10% polyacrylamide gels and transferred to PVDF membranes. Western blots were blocked with 3% bovine serum albumin and incubated in anti-phospho-[…][…]), anti-pSrc ([…]), anti-pERK, anti-pLyn ([…]), anti-pJNK, and anti-phospho-p38 primary antibodies with anti-α-tubulin, Src, ERK2, Lyn, JNK, and p38 antibodies used as the respective loading controls. Blots were washed followed by incubation with HRP-conjugated secondary antibodies and antibody binding was detected via enhanced chemiluminescence (GE Healthcare, Piscataway, NJ). Western blots were quantified using Adobe Photoshop software. Optical densities of bands were normalized using their appropriate loading controls and averaged (±) SD.

Src [6] = biological target: T2, Src; assay: Aβ-stimulated pSrc western blot in BV2 cells; type: cell-based, murine; conditions: 1h pretreatment, 1 μM Aβ 1-42 for 5 minutes
Method: as §3

ERK [7] = assay: Aβ-stimulated pERK western blot in BV2 cells; type: cell-based, murine; conditions: 1h pretreatment, 1 μM Aβ
Method: as §3

TNF-α secretion [8] = assay: Aβ-stimulated TNF-α secretion ELISA in BV2 cells; type: cell-based, murine; conditions: 1h pretreatment, 50nM Aβ 1-42, 24h
Method: as §1
(§4) Media were collected from BV2 cells following 24 hour stimulations for ELISA analyses. Levels of mouse TNF-α, IL-6, and IL-1β in the media were determined using commercially available ELISA kits according to the manufacturer’s protocol (R&D Systems).

IL-6 secretion = assay: Aβ-stimulated IL-6 secretion ELISA in BV2 cells; type: cell-based, murine; conditions: 1h pretreatment, 50nM Aβ 1-42, 24h
Method: as §1, §4

TNF-α secretion [9] = assay: LPS-stimulated TNF-α secretion ELISA in BV2 cells; type: cell-based, murine; conditions: 1h pretreatment, 25ng/ml LPS, 24h
Method: as §1, §4

[10] = Microsomal stability / intrinsic clearance assay, human; type: in vitro ADME; conditions: liver microsomes
Method: (§5) Briefly, the compound was incubated with human or mouse microsomes in the presence or absence of NADPH. […] Data were converted to percent remaining by dividing by the time zero concentration value. In vitro half-life was determined based on the slope of the (first-order) decay curve and this value was converted to intrinsic clearance (CLint). […] Briefly, Caco-2 cells were plated in Millipore 96-well transwell plates and allowed to differentiate for 21 days to form polarized, epithelial monolayers. For apical to basolateral (A→B) permeability, the compound was added to the apical (A) side and amount permeation determined on the basolateral (B) side. For B→A permeability, the compound was added on the basolateral (B) side. Upon completion of the incubation (2 hr), the receiver side buffer was removed for analysis by LC-MS/MS. From the samples, apparent permeability rate coefficients (Papp values) and efflux ratios were determined for the compound.

[11] = Microsomal stability / intrinsic clearance assay, mouse; type: in vitro ADME; conditions: liver microsomes
Method: as §5

[12] = Caco-2 bidirectional permeability assay; type: in vitro ADME; conditions: human
Method: as §5

Caco-2 cells = assay: Caco-2 bidirectional permeability assay; type: in vitro ADME; conditions: Caco-2, 10 μM, 2 hr
Method: as §5

[13] = read-out: NADPH-Dependent CLint

active, phosphorylated Lyn (pLyn) protein levels (Lyn [2]): dose-dependent decrease
active, phosphorylated Src (pSrc) protein levels (Src [3]): dose-dependent decrease
selectivity for Lyn versus Src in the Aβ stimulation paradigm (Lyn [5]; 50nM (pLyn) vs 500nM (pSrc)): tenfold
concentration sufficient to significantly attenuate the Aβ stimulated increase in pLyn levels (Lyn [5]; 1h pretreatment, 1 μM Aβ 1-42 for 5 minutes): 50 nM
concentration required to attenuate the Aβ stimulated increase in pSrc (Src [6]): 500 nM
half-life at 1 μM ([10]; read-out: NADPH-Depend. T1/2): 14.1 min
microsomal CLint at 1 μM [10, 13]: 98.4 µL/min/mg
microsomal CLint at 1 μM ([10]; read-out: NADPH-Free CLint): 21.2 µL/min/mg
half-life at 1 μM ([10]; read-out: NADPH-Free T1/2): 65 min
half-life at 1 μM ([11]; read-out: NADPH-Depend. T1/2): 16.6 min
microsomal CLint at 1 μM [11, 13]: 83.3 µL/min/mg
microsomal CLint at 1 μM ([11]; read-out: NADPH-Free CLint): 15.8 µL/min/mg
half-life at 1 μM ([11]; read-out: NADPH-Free T1/2): 88 min
efflux ratio at 2 hr, 10 μM ([12]; Caco-2, 10 μM, 2 hr, read-out: Efflux Ratio Papp(B→A) / Papp(A→B)): 0.85
Papp A→B at 2 hr, 10 μM ([12]; Caco-2, 10 μM, 2 hr, read-out: mean A→B Papp): 190 nm/s
Papp B→A at 2 hr, 10 μM ([12]; Caco-2, 10 μM, 2 hr, read-out: mean B→A Papp): 162 nm/s
Caco-2 permeability, comment (Caco-2 cells): high permeability
Structure (SMILES): COc1cc2ncnc(Nc3ccc(Cl)cc3Cl)c2cc1OC [LDDN-0003499]
toxicity to microglial BV2 cells (LDH release, cell viability) (microglial BV2 cells): not toxic
total protein phosphotyrosine levels [1]: significantly decrease the total protein phosphotyrosine levels in a dose-dependent manner
phosphorylated ERK (pERK) protein levels (ERK [4]): no ability to alter
phosphorylated JNK (pJNK) protein levels (JNK): no ability to alter
phosphorylated p38 (p-p38) protein levels (p38): no ability to alter
pERK levels following Aβ stimulation (ERK [7]): no inhibition
Aβ stimulated TNF-α secretion (TNF-α secretion [8]): dose-dependently inhibited
concentration at which inhibition of Aβ stimulated TNF-α secretion begins (TNF-α secretion [8]): 500 nM
Aβ stimulated IL-6 secretion (IL-6 secretion): dose-dependently inhibited
LPS stimulated TNF-α secretion (TNF-α secretion [9]): attenuated

Papp A→B at 2 hr, 10 μM ([12]; Caco-2): 271 nm/s
Papp B→A at 2 hr, 10 μM ([12]; Caco-2): 104 nm/s
Structure (SMILES): CC(=O)CC(c1ccccc1)c1c(O)c2ccccc2oc1=O (stereo not drawn) [warfarin, reference compound]

active, phosphorylated Lyn (pLyn) protein levels (Lyn [2]): not able to attenuate
active, phosphorylated Src (pSrc) protein levels (Src [3]): not able to attenuate
Structure (SMILES): O=C(Nc1cc(Cl)ccc1Cl)c1noc2c1CCC2 [LDDN-0075935]
toxicity to microglial BV2 cells (LDH release, cell viability) (microglial BV2 cells): not toxic
total protein phosphotyrosine levels [1]: no effect
phosphorylated ERK (pERK) protein levels (ERK [4]): stimulated increased pERK protein levels at the highest drug concentration
phosphorylated JNK (pJNK) protein levels (JNK): did not attenuate
phosphorylated p38 (p-p38) protein levels (p38): did not attenuate
